Measured values taken from patent US11230541B2, “Heterocyclic compound” (Takeda Pharmaceutical Company Limited, priority 2017, dated 2022).

Biological target: T1, NMDA receptor composed of four subunits including 2 sets of heterodimers of NR1 and NR2B (Homo sapiens, UniProt Q13224)
T1 construct: host or cells: HEK293 (tetracycline-induced expression)
Experiment: NR2B Ca2+ influx assay (FLIPR, Fluo-4) in HEK293 cells expressing human GRIN1 and GRIN2B
Assay type: cell-based
Conditions: HEK293, 10 μM final compound concentration, glutamic acid/glycine-induced Ca2+ influx, read-out: inhibitory rate (10 μM compound concentration)
Procedure, shortened: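 Inhibition rate was calculated from 5-min cumulative Fluo-4 signal (FLIPR, 3-s reads), using agonist-free buffer wells as 100% inhibition. Compound, 10 μM final, was applied 15 min before adding buffer with 30 μM glutamic acid and glycine to HEK293 cells with tetracycline-induced human NR1/NR2B, in HEPES pH 7.2 with 1.8 mM CaCl2.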

T1 sequence (Q13224 27-1484, other chains not shown): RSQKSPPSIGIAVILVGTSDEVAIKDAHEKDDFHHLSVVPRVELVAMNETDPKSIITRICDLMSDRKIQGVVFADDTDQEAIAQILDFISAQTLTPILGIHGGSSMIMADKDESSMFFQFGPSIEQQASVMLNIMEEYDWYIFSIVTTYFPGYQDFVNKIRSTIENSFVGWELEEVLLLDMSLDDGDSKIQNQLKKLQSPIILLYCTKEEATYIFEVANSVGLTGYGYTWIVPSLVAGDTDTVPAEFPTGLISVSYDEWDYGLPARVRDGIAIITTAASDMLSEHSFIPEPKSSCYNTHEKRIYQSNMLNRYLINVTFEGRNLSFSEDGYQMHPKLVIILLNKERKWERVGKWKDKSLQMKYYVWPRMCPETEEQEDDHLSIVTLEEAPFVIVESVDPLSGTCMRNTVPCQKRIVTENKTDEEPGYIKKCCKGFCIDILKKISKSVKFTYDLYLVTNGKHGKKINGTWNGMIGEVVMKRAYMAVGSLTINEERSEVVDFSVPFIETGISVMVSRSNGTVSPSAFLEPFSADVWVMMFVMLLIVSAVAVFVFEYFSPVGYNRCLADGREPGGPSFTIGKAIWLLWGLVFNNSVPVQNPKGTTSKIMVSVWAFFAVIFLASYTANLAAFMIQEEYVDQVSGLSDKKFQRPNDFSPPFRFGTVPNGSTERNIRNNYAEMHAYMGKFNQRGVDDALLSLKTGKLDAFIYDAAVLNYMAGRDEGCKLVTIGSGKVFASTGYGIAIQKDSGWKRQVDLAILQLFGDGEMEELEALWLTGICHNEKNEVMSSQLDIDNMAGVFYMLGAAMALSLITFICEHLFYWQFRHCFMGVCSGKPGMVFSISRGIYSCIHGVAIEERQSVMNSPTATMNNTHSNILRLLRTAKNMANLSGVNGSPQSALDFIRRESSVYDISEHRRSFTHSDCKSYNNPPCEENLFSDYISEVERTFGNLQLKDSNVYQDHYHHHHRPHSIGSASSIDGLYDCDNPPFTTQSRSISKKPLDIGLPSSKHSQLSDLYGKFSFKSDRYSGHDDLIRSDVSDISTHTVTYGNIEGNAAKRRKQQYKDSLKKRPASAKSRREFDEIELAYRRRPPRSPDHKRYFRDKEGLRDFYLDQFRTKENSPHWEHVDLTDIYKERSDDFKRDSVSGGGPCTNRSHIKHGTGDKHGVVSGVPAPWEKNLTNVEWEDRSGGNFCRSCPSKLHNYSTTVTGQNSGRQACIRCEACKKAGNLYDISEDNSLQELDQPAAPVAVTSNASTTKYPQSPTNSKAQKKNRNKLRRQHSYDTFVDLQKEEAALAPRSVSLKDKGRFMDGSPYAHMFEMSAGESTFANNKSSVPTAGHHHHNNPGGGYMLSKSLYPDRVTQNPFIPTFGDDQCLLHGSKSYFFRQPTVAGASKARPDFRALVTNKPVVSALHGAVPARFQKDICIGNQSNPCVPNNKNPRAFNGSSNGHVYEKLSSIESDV

Row | Structure (SMILES) | inhibition at 10 µM [%]
1 | Cc1ccc2ncn(C)c2c1CNC(=O)c1ccc(OC(F)(F)F)c(F)c1 [Example 30, N-((1,6-dimethyl-1H-benzimidazol-7-yl)-methyl)-3-fluoro-4-(trifluoromethoxy)-benzamide] | 90
2 | COc1ccc2ncn(C)c2c1CNC(=O)c1csc(Cl)c1 [Example 28, 5-chloro-N-((6-methoxy-1-methyl-1H-benzimidazol-7-yl)nethyl)thiophene-3-carboxamide] | 90
3 | O=C(NCc1cccc2[nH]ncc12)c1cc(F)c(Cl)c(F)c1 [Example 189, 4-chloro-3,5-difluoro-N-(1H-indazol-4-ylmethyl)benzamide] | 67
4 | COc1ccc2nc(C)n(C)c2c1CNC(=O)c1cc(F)c(OC(F)F)c(F)c1 [Example 246, 4-(difluoromethoxy)-3,5-difluoro-N-((6-methoxy-1,2-dimethyl-1H-benzimidazol-7-y1)methyl)benzamide] | 87
5 | Cc1ccc2[nH]nnc2c1CNC(=O)c1cc(F)c(Cl)c(F)c1 [Example 198, 4-chloro-3,5-difluoro-N-((5-methyl-1H-benzotriazol-4-yl)methyl)benzamide] | 90
6 | CCc1ccc2ncn(C)c2c1CNC(=O)c1ccc(C(F)F)cc1 [Example 133, 4-(difluoromethyl)-N-((6-ethyl-1-methyl-1H-benzimidazol-7-yl)methyl)benzamide] | 91
7 | Cc1ccc(C(=O)NCc2cccc3[nH]ncc23)cc1Cl [Example 185, 3-chloro-N-(1H-indazol-4-ylmethyl)-4-methylbenzamide] | 74
8 | COc1ccc2nc(C)n(C)c2c1CNC(=O)c1ccc(Cl)cc1 [Example 249, 4-chloro-N-((6-methoxy-1,2-dimethyl-1H-benzimidazol-7-yl)methyl)benzamide] | 57
9 | Cc1ccc2ncn(C)c2c1CNC(=O)c1ccc(OC(F)(F)F)c(Cl)c1 [Example 60, 3-chloro-N-((1,6-dimethyl-1H-benzimidazol-7-yl)-methyl)-4-(trifluoro-methoxy)benzamide] | 94
10 | COc1ccc2ncn(C)c2c1CNC(=O)c1ccc(OC(F)F)nc1 [Example 276, 6-(difluoromethoxy)-N-[(6-methoxy-l-methyl-1H-benzimidazol-7-yl)methyl]pyridine-3-carboxamide] | 88
11 | O=C(NCc1cccc2[nH]ncc12)c1ccc(F)c(Cl)c1 [Example 186, 3-chloro-4-fluoro-N-(1H-indazol-4-ylmethyl)benzamide] | 56
12 | Cc1ccc2ncn(C)c2c1CNC(=O)c1ccc(OC(F)F)cc1 [Example 135, 4-(difluoromethoxy)-N-((1,6-dimethyl-1H-benzimidazol-7-yl)methyl)benzamide] | 90
13 | COc1ccc2ncn(C)c2c1CNC(=O)Nc1ccc(C(F)(F)F)cc1F [Example 260, 1-(2-fluoro-4-(trifluoromethyl)-phenyl)-3-((6-methoxy-1-methyl-1H-benzimidazol-7-yl)methyl)urea] | 92
14 | CCOc1ncc(C(=O)NCc2c(C3CC3)ccc3[nH]ncc23)cc1F [Example 119, N-((5-cyclopropyl-1H-indazol-4-yl)methyl)-6-ethoxy-5-fluoronicotinamide] | 94
15 | Cc1n[nH]c2cccc(CNC(=O)c3ccc(OC(F)(F)F)c(F)c3)c12 [Example 269, 3-fluoro-N-((3-methyl-1H-indazol-4-yl)methyl)-4-(trifluoromethoxy)-benzamide] | 87
16 | COc1ccc2ncn(C)c2c1CNC(=O)c1csc(C)c1 [Example 27, N-((6-methoxy-1-methyl-1H-benzimidazol-7-yl)-methyl)-5-methylthiophene-3-carboxamide] | 82
17 | COc1ccc2nc(C)n(C)c2c1CNC(=O)c1ccc(Cl)c(F)c1 [Example 248, 4-chloro-3-fluoro-N-((6-methoxy-1,2-dimethyl-1H-benzimidazol-7-yl)methyl)benzamide] | 64
18 | COc1ccc2ncn(C)c2c1CNC(=O)Nc1cccc(Cl)c1 [Example 219, 1-(3-chlorophenyl)-3-((6-methoxy-1-methyl-1H-benzimidazol-7-yl)methyl)urea] | 72
19 | Cn1nnc2cccc(CNC(=O)c3ccc(OC(F)(F)F)c(F)c3)c21 [Example 274, 3-fluoro-N-[(1-methyl-1H-benzotriazol-7-yl)methyl]-4-(trifluoromethoxy)-benzamide] | 93
20 | O=C(NCc1cccc2[nH]ncc12)c1cc(F)c(C(F)(F)F)c(F)c1 [Example 173, 3,5-difluoro-N-(1H-indazol-4-ylmethyl)-4-(trifluoromethyl)-benzamide] | 80
21 | COc1ncc(C(=O)NCc2cccc3[nH]ncc23)cc1F [Example 172, 5-fluoro-N-(1H-indazol-4-ylmethyl)-6-methoxynicotinamide] | 60

Row | Structure (SMILES) | inhibition at 10 µM [%]
22 | O=C(NCc1c(C2CC2)ccc2[nH]ncc12)c1ccc(OC(F)F)c(Cl)c1 [Example 107, 3-chloro-N-((5-cyclopropyl-1H-indazol-yl)methyl)-4-(difluoromethoxy)-benzamide] | 93
23 | Cc1ccc2ncn(C)c2c1CNC(=O)c1cc(F)c(OC(F)F)c(F)c1 [Example 158, 4-(difluoromethoxy)-N-((1,6-dimethyl-1H-benzimidazol-7-yl)methyl)-3,5-difluorobenzamide] | 89
24 | O=C(NCc1c(C2CC2)ccc2[nH]ncc12)c1ccc(F)c(Cl)c1 [Example 77, 3-chloro-N-((5-cyclopropyl-1H-indazol-4-yl)methyl)-4-fluorobenzamide] | 92
25 | COc1ccc2ncn(C)c2c1CNC(=O)Nc1cccc(C(F)(F)F)c1 [Example 222, 1-((6-methoxy-1-methyl-lH-benzimidazol-7-yl)methyl)-3-(3-(trifluoromethyl)-phenyl)urea] | 55
26 | CCc1ccc2ncn(C)c2c1CNC(=O)c1cc(F)c(OC)c(F)c1 [Example 23, N-((6-ethyl-1-methyl-1H-benzimidazol-7-yl)-methyl)-3,5-difluoro-4-methoxybenzamide] | 93
27 | COCc1ccc2ncn(C)c2c1CNC(=O)c1cnc(OC(F)F)c(F)c1 [Example 281, 6-(difluoromethoxy)-5-fluoro-N-{[6-(methoxymethyl)-1-methyl-lH-benzimidazol-7-yl]methyl}pyridine-3-carboxamide] | 82
28 | Cc1ccc2[nH]nnc2c1CNC(=O)c1cc(F)c(C(F)(F)F)c(F)c1 [Example 195, 3,5-difluoro-N-((5-methyl-1H-benzotriazol-4-yl)methyl)-4-(trifluoromethyl)-benzamide] | 91
29 | Cc1cc(C(=O)NCc2c(C3CC3)ccc3[nH]ncc23)ccc1F [Example 75, N-((5-cyclopropyl-1H-indazol-4-yl)methyl)-4-fluoro-3-methyl-benzamide] | 92
30 | COc1ccc2ncn(C)c2c1CNC(=O)c1ccc(OC(F)(F)F)cc1 [Example 12, N-((6-methoxy-1-methyl-1H-benzimidazol-7-yl)methyl)-4-(trifluoromethoxy)benzamide] | 94
31 | Cc1ccc2ncn(C)c2c1CNC(=O)c1cc(F)c(C(F)(F)F)c(F)c1 [Example 26, N-((1,6-dimethyl-1H-benzimidazol-7-yl)-methyl)-3,5-difluoro-4-(trifluoromethyl)benzamide] | 66
32 | COc1ccc2ncn(C)c2c1CNC(=O)c1ccc(OC(F)(F)F)c(F)c1 [Example 52, 3-fluoro-N-((6-methoxy-1-methyl-1H-benzimidazol-7-yl)methyl)-4-(trifluoro-methoxy)benzamide] | 91
33 | COc1c(F)cc(C(=O)NCc2cccc3[nH]nnc23)cc1F [Example 211, N-(1H-benzotriazol-4-ylmethyl)-3,5-difluoro-4-methoxybenzamide] | 95
34 | CCOc1ncc(C(=O)NCc2c(OC)ccc3nc(C)n(C)c23)cc1F [Example 234, 6-ethoxy-5-fluoro-N-((6-methoxy-1,2-dimethyl-lH-benzimidazol-7-yl)methyl)nicotinamide] | 73
35 | CCOc1ccc2ncn(C)c2c1CNC(=O)c1ccc(C(F)F)s1 [Example 126, 5-(difluoromethyl)-N-((6-ethoxy-1-methyl-1H-benzimidazol-7-yl)methyl)thiophene-2-carboxamide] | 88
36 | COc1ccc(C(=O)NCc2c(OC)ccc3ncn(C)c23)cc1F [Example 11, 3-fluoro-4-methoxy-N-((6-methoxy-1-methyl-1H-benzimidazol-7-yl)methyl)benzamide] | 92
37 | COc1ccc2ncn(C)c2c1CNC(=O)Nc1ccc(C)c(F)c1 [Example 218, 1-(3-fluoro-4-methylphenyl)-3-((6-methoxy-1-methyl-1H-benzimidazol-7-yl)methyl)urea] | 93
38 | COc1c(F)cc(C(=O)NCc2cccc3[nH]ncc23)cc1F [Example 180, 3,5-difluoro-N-(1H-indazol-4-ylmethyl)-4-methoxybenzamide] | 89
39 | COc1ccc2nc(C)n(C)c2c1CNC(=O)c1ccc(C)c(F)c1 [Example 238, 3-fluoro-N-((6-methoxy-1,2-dimethyl-1H-benzimidazol-7-yl)methyl)-4-methylbenzamide] | 61
40 | CCc1ccc2[nH]nnc2c1CNC(=O)c1ccc(OC(F)(F)F)cc1 [Example 209, N-((5-ethyl-1H-benzotriazol-4-yl)methyl)-4-(trifluoromethoxy)-benzamide] | 94
41 | O=C(NCc1c(C2CC2)ccc2[nH]ncc12)c1ccc(F)c(C(F)(F)F)c1 [Example 85, N-((5-cyclopropyl-1H-indazol-4-yl)methyl)-4-fluoro-3-(trifluoromethyl)-benzamide] | 93
